Values of other authors in patent US20110195912A1, “Oligomer-Protease Inhibitor Conjugates” (Nektar Therapeutics, priority 2008, published 2011).
Like-named read-outs stand apart in the source and are kept apart here.

What was measured:
HCV genotype 1 [1] = settings: 100-400 mg twice daily; patients with HCV genotype 1 that had failed pegIFN-α 2a therapy
HCV genotype 1 [2] = settings: 200 or 400 mg thrice daily, 14 days; non-responder patients with HCV genotype 1
HCV = settings: monotherapy, twice daily doses for 14 days
[3] = rat; twice daily oral dosing for seven days
[4] = monkey; twice daily oral dosing for seven days

| SMILES | antiviral activity as a monotherapy (HCV genotype 1 [1]) | efficacy in combination with pegIFN-α2a (HCV genotype 1 [2]) | viral RNA levels (HCV) | liver trough concentrations following the last dose [3] | liver trough concentrations following the last dose [4] |
| --- | --- | --- | --- | --- | --- |
| CC(C)(C)NC(=O)N[C@H](C(=O)N1CC2[C@@H]([C@H]1C(=O)NC(CC1CCC1)C(=O)C(N)=O)C2(C)C)C(C)(C)C (some centres unmarked) [Boceprevir] | demonstrated antiviral activity | efficacious |  |  |  |
| CC(C)(C)OC(=O)N[C@H]1CCCCC/C=C\[C@@H]2C[C@@]2(C(=O)NS(=O)(=O)C2CC2)NC(=O)[C@@H]2C[C@@H](OC(=O)N3Cc4cccc(F)c4C3)CN2C1=O [ITMN-191] |  |  | rapid reduction in viral RNA levels | in excess of in vitro EC90 values | in excess of in vitro EC90 values |
